Biological target: MGAT2 Human (Homo sapiens (Human), UniProt Q3SYC2)
Test: MGAT2 Human IC50
Type: biochemical

MGAT2 Human, sequence (Q3SYC2 whole entry): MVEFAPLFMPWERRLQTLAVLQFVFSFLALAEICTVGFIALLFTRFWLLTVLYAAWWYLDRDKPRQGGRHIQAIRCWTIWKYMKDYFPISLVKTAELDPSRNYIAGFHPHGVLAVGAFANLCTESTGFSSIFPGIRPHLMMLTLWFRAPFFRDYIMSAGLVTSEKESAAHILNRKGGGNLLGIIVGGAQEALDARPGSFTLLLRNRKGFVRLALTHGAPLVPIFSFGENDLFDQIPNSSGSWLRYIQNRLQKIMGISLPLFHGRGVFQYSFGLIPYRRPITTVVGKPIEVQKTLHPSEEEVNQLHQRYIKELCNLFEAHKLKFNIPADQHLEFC

SMILES	IC50 [nM]
COCCOc1ccc([C@@H](C)N2CCc3ccc(S(=O)(=O)Nc4cc(C(C)(C)C)on4)cc3C2)cn1 [Example 31, 7-(N-(5-(tert-butyl)isoxazol-3-yl)sulfamoyl)-2-((R)-1-(6-(2-methoxyethoxy)pyridin-3-yl)ethyl)-1,2,3,4-tetrahydroisoquinolin-2-ium 2,2,2-trifluoroacetate]	17.2
C[C@H](c1ccc(OCC(F)(F)F)nc1)N1CCc2ccc(S(=O)(=O)Nc3noc(C(C)(C)C)c3CO)cc2C1 [Example 32, 7-(N-(5-(tert-butyl)-4-(hydroxymethyl)isoxazol-3-yl)sulfamoyl)-2-((R)-1-(6-(2,2,2-trifluoroethoxy)pyridin-3-yl)ethyl)-1,2,3,4-tetrahydroisoquinolin-2-ium 2,2,2-trifluoroacetate]	19.8
CCOC(=O)c1c(NS(=O)(=O)c2ccc3c(c2)CN([C@H](C)c2cc(F)cc(F)c2)CC3)noc1C(C)(C)C [Example 33, (R)-ethyl 5-(tert-butyl)-3-(2-(1-(3,5-difluorophenyl)ethyl)-1,2,3,4-tetrahydroisoquinoline-7-sulfonamido)isoxazole-4-carboxylate]	3.7
CNC(=O)c1c(NS(=O)(=O)c2ccc3c(c2)CN([C@H](C)c2cc(F)cc(F)c2)CC3)noc1C(C)(C)C [Example 34, (R)-5-(tert-butyl)-3-(2-(1-(3,5-difluorophenyl)ethyl)-1,2,3,4-tetrahydroisoquinoline-7-sulfonamido)-N-methylisoxazole-4-carboxamide]	6.2
CCOc1cnc([C@@H](C)N2CCc3ccc(S(=O)(=O)Nc4noc(C(C)(C)C)c4Cl)cc3C2)cn1 [Example 35, (R)—N-(5-(tert-Butyl)-4-chloroisoxazol-3-yl)-2-(1-(5-ethoxypyrazin-2-yl)ethyl)-1,2,3,4-tetrahydroisoquinoline-7-sulfonamide]	8.3
CCOc1cnc([C@@H](C)N2CCc3ccc(S(=O)(=O)Nc4noc(C(C)(C)C)c4C)cc3C2)cn1 [Example 36, (R)—N-(5-(tert-butyl)-4-methylisoxazol-3-yl)-2-(1-(5-ethoxypyrazin-2-yl)ethyl)-1,2,3,4-tetrahydroisoquinoline-7-sulfonamide]	3.5
CCOc1cnc([C@@H](C)N2CCc3ccc(S(=O)(=O)Nc4noc(-c5ccccc5)n4)cc3C2)cn1 [Example 37]	11.5
CCCc1cnc(NS(=O)(=O)c2ccc3c(c2)CN([C@H](C)c2cc(F)cc(F)c2)CC3)cn1 [Example 38, (R)-2-(1-(3,5-difluorophenyl)ethyl)-N-(5-propylpyrazin-2-yl)-1,2,3,4-tetrahydroisoquinoline-7-sulfonamide]	6
CCCc1c(NS(=O)(=O)c2ccc3c(c2)CN(Cc2ccc(CC)nc2)CC3)noc1C(C)(C)C [Example 39, N-(5-(tert-butyl)-4-propylisoxazol-3-yl)-2-((6-ethylpyridin-3-yl)methyl)-1,2,3,4-tetrahydroisoquinoline-7-sulfonamide]	11
CCc1ccc(CN2CCc3ccc(S(=O)(=O)Nc4noc(C(C)(C)C)c4CC)cc3C2)cn1 [Example 40, N-(5-(tert-butyl)-4-ethylisoxazol-3-yl)-2-((6-ethylpyridin-3-yl)methyl)-1,2,3,4-tetrahydroisoquinoline-7-sulfonamide]	15
CCCc1ccc(CN2CCc3ccc(S(=O)(=O)Nc4noc(C(C)(C)C)c4Br)cc3C2)cn1 [Example 41, N-(4-bromo-5-(tert-butyl)isoxazol-3-yl)-2-((6-propylpyridin-3-yl)methyl)-1,2,3,4-tetrahydroisoquinoline-7-sulfonamide]	6.8
CCc1ccc([C@@H](C)N2CCc3ccc(S(=O)(=O)Nc4noc(C(C)(C)C)c4C)cc3C2)cn1 [Example 42, (R)—N-(5-(tert-butyl)-4-methylisoxazol-3-yl)-2-(1-(6-ethylpyridin-3-yl)ethyl)-1,2,3,4-tetrahydroisoquinoline-7-sulfonamide]	8.2

Reference: patent US10065945B2, “Isoquinoline derivatives as MGAT2 inhibitors” (Merck Sharp & Dohme Corp., priority 2014, dated 2018)
